Laboratory results published in the supplement of paper PMC10307832.

Tests used:
Experiment in all cases: relative viability (nuclei count vs DMSO), 5 days (fraction); higher = more cells survive
QS11 + Tozasertib = compound: C1CC2=C(C1)C=C(C=C2)OC3=NC(=C4C(=N3)N(C=N4)CC5=CC=C(C=C5)C6=CC=CC=C6)N[C@@H](CC7=CC=CC=C7)CO [QS11] + Cc1cc(Nc2cc(N3CCN(C)CC3)nc(Sc3ccc(NC(=O)C4CC4)cc3)n2)n[nH]1 [Tozasertib] (partner 0.1 µM)
Summary of the method: (§1)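 Each reported value is a median over duplicate plates. It expresses relative viability: treated-well nuclei count divided by vehicle-well nuclei count. Lung cancer cell lines in 1536-well plates were dosed by pin tool a day after seeding, alone with one drug or with a fixed anchor-drug dose plus five library-drug doses (not always all listed) in √10 steps, and nuclei were counted after 5 days.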

AZ628 + OSI-027 = compound: CC1=C(C=C(C=C1)NC(=O)C2=CC(=CC=C2)C(C)(C)C#N)NC3=CC4=C(C=C3)N=CN(C4=O)C [AZ628] + COc1cccc2cc(-c3nc([C@H]4CC[C@H](C(=O)O)CC4)n4ncnc(N)c34)[nH]c12 [OSI-027] (partner 0.5 µM)
Summary of the method: as §1

[1] = compound: C[As](C)SC[C@H](NC(=O)CC[C@H](N)C(=O)O)C(=O)NCC(=O)O [Darinaparsin] + C[C@]1(O)C[C@@H](c2nc(-c3ccc4ccc(-c5ccccc5)nc4c3)c3c(N)nccn32)C1 [Linsitinib] (partner 1 µM)
Summary of the method: as §1

[2] = compound: C[As](C)SC[C@H](NC(=O)CC[C@H](N)C(=O)O)C(=O)NCC(=O)O [Darinaparsin] + Nc1ncn([C@H]2C[C@H](O)[C@@H](CO)O2)c(=O)n1 [Decitabine] (partner 2 µM)
Summary of the method: as §1

EKVX
relative viability (QS11 + Tozasertib; first compound 0.08 µM): 0.369 | relative viability (QS11 + Tozasertib; first compound 0.253 µM): 0.367 | relative viability (QS11 + Tozasertib; first compound 2.53 µM): 0.302 | relative viability (QS11 + Tozasertib; first compound 8 µM): 0.457 | relative viability (AZ628 + OSI-027; first compound 0.08 µM): 0.715 | relative viability (AZ628 + OSI-027; first compound 0.253 µM): 0.673 | relative viability (AZ628 + OSI-027; first compound 0.8 µM): 0.804 | relative viability (AZ628 + OSI-027; first compound 2.53 µM): 0.764 | relative viability (AZ628 + OSI-027; first compound 8 µM): 0.572 | relative viability ([1]; first compound 0.08 µM): 1.33 | relative viability ([1]; first compound 0.8 µM): 0.902 | relative viability ([1]; first compound 2.53 µM): 0.969 | relative viability ([1]; first compound 8 µM): 1.2 | relative viability ([2]; first compound 0.08 µM): 0.339 | relative viability ([2]; first compound 0.8 µM): 0.323 | relative viability ([2]; first compound 2.53 µM): 0.382 | relative viability ([2]; first compound 8 µM): 0.314

EMC-BAC-2
relative viability (QS11 + Tozasertib; first compound 0.08 µM): 0.297 | relative viability (QS11 + Tozasertib; first compound 0.253 µM): 0.292 | relative viability (QS11 + Tozasertib; first compound 0.8 µM): 0.279 | relative viability (QS11 + Tozasertib; first compound 2.53 µM): 0.274 | relative viability (QS11 + Tozasertib; first compound 8 µM): 0.238 | relative viability (AZ628 + OSI-027; first compound 0.08 µM): 0.397 | relative viability (AZ628 + OSI-027; first compound 0.253 µM): 0.425 | relative viability (AZ628 + OSI-027; first compound 0.8 µM): 0.477 | relative viability (AZ628 + OSI-027; first compound 2.53 µM): 0.436 | relative viability (AZ628 + OSI-027; first compound 8 µM): 0.448 | relative viability ([1]; first compound 0.08 µM): 0.862 | relative viability ([1]; first compound 0.8 µM): 0.758 | relative viability ([1]; first compound 2.53 µM): 0.773 | relative viability ([1]; first compound 8 µM): 0.965 | relative viability ([2]; first compound 0.08 µM): 0.916 | relative viability ([2]; first compound 0.8 µM): 0.907 | relative viability ([2]; first compound 2.53 µM): 1.18 | relative viability ([2]; first compound 8 µM): 0.969

EPLC-272H
relative viability (QS11 + Tozasertib; first compound 0.253 µM): 0.17 | relative viability (QS11 + Tozasertib; first compound 0.8 µM): 0.258 | relative viability (QS11 + Tozasertib; first compound 2.53 µM): 0.248 | relative viability (QS11 + Tozasertib; first compound 8 µM): 0.292 | relative viability (AZ628 + OSI-027; first compound 0.08 µM): 0.211 | relative viability (AZ628 + OSI-027; first compound 0.253 µM): 0.258 | relative viability (AZ628 + OSI-027; first compound 0.8 µM): 0.295 | relative viability (AZ628 + OSI-027; first compound 2.53 µM): 0.238 | relative viability (AZ628 + OSI-027; first compound 8 µM): 0.171 | relative viability ([1]; first compound 0.08 µM): 1.2 | relative viability ([1]; first compound 0.8 µM): 1.31 | relative viability ([1]; first compound 2.53 µM): 0.956 | relative viability ([1]; first compound 8 µM): 1.17 | relative viability ([2]; first compound 0.08 µM): 0.377 | relative viability ([2]; first compound 0.8 µM): 0.37 | relative viability ([2]; first compound 2.53 µM): 0.353 | relative viability ([2]; first compound 8 µM): 0.329

H3255
relative viability (QS11 + Tozasertib; first compound 0.08 µM): 0.639 | relative viability (QS11 + Tozasertib; first compound 0.253 µM): 0.853 | relative viability (QS11 + Tozasertib; first compound 2.53 µM): 0.651 | relative viability (QS11 + Tozasertib; first compound 8 µM): 0.589 | relative viability (AZ628 + OSI-027; first compound 0.08 µM): 0.64 | relative viability (AZ628 + OSI-027; first compound 0.253 µM): 0.484 | relative viability (AZ628 + OSI-027; first compound 0.8 µM): 0.564 | relative viability (AZ628 + OSI-027; first compound 2.53 µM): 0.584 | relative viability (AZ628 + OSI-027; first compound 8 µM): 0.323 | relative viability ([1]; first compound 0.08 µM): 0.995 | relative viability ([1]; first compound 0.8 µM): 0.96 | relative viability ([1]; first compound 2.53 µM): 0.86 | relative viability ([1]; first compound 8 µM): 1.16 | relative viability ([2]; first compound 0.08 µM): 0.634 | relative viability ([2]; first compound 0.8 µM): 0.587 | relative viability ([2]; first compound 2.53 µM): 0.662 | relative viability ([2]; first compound 8 µM): 0.674

HARA
relative viability (QS11 + Tozasertib; first compound 0.08 µM): 0.0847 | relative viability (QS11 + Tozasertib; first compound 0.253 µM): 0.117 | relative viability (QS11 + Tozasertib; first compound 2.53 µM): 0.0916 | relative viability (QS11 + Tozasertib; first compound 8 µM): 0.102 | relative viability (AZ628 + OSI-027; first compound 0.08 µM): 0.322 | relative viability (AZ628 + OSI-027; first compound 0.253 µM): 0.432 | relative viability (AZ628 + OSI-027; first compound 0.8 µM): 0.472 | relative viability (AZ628 + OSI-027; first compound 2.53 µM): 0.439 | relative viability (AZ628 + OSI-027; first compound 8 µM): 0.245 | relative viability ([1]; first compound 0.08 µM): 1.38 | relative viability ([1]; first compound 0.8 µM): 0.852 | relative viability ([1]; first compound 2.53 µM): 0.75 | relative viability ([1]; first compound 8 µM): 1.19 | relative viability ([2]; first compound 0.08 µM): 0.6 | relative viability ([2]; first compound 2.53 µM): 0.51 | relative viability ([2]; first compound 8 µM): 0.603

HCC-15
relative viability (QS11 + Tozasertib; first compound 0.08 µM): 0.363 | relative viability (QS11 + Tozasertib; first compound 0.253 µM): 0.523 | relative viability (QS11 + Tozasertib; first compound 0.8 µM): 0.385 | relative viability (QS11 + Tozasertib; first compound 2.53 µM): 0.257 | relative viability (QS11 + Tozasertib; first compound 8 µM): 0.312 | relative viability (AZ628 + OSI-027; first compound 0.08 µM): 0.751 | relative viability (AZ628 + OSI-027; first compound 0.253 µM): 0.582 | relative viability (AZ628 + OSI-027; first compound 0.8 µM): 0.461 | relative viability (AZ628 + OSI-027; first compound 2.53 µM): 0.433 | relative viability (AZ628 + OSI-027; first compound 8 µM): 0.236 | relative viability ([1]; first compound 0.08 µM): 0.878 | relative viability ([1]; first compound 0.8 µM): 0.881 | relative viability ([1]; first compound 2.53 µM): 0.78 | relative viability ([1]; first compound 8 µM): 1.01 | relative viability ([2]; first compound 0.08 µM): 0.727 | relative viability ([2]; first compound 0.8 µM): 0.565 | relative viability ([2]; first compound 2.53 µM): 0.643 | relative viability ([2]; first compound 8 µM): 0.722

HCC-44
relative viability (QS11 + Tozasertib; first compound 0.08 µM): 1 | relative viability (QS11 + Tozasertib; first compound 0.253 µM): 0.981 | relative viability (QS11 + Tozasertib; first compound 0.8 µM): 0.694 | relative viability (QS11 + Tozasertib; first compound 2.53 µM): 0.792 | relative viability (QS11 + Tozasertib; first compound 8 µM): 0.458 | relative viability (AZ628 + OSI-027; first compound 0.08 µM): 0.453 | relative viability (AZ628 + OSI-027; first compound 0.253 µM): 0.441 | relative viability (AZ628 + OSI-027; first compound 0.8 µM): 0.493 | relative viability (AZ628 + OSI-027; first compound 2.53 µM): 0.374 | relative viability (AZ628 + OSI-027; first compound 8 µM): 0.365 | relative viability ([1]; first compound 0.08 µM): 0.841 | relative viability ([1]; first compound 0.8 µM): 0.636 | relative viability ([1]; first compound 2.53 µM): 0.441 | relative viability ([1]; first compound 8 µM): 0.86 | relative viability ([2]; first compound 0.08 µM): 1.05 | relative viability ([2]; first compound 0.8 µM): 0.966 | relative viability ([2]; first compound 2.53 µM): 0.924 | relative viability ([2]; first compound 8 µM): 0.977

HCC-78
relative viability (QS11 + Tozasertib; first compound 0.08 µM): 0.404 | relative viability (QS11 + Tozasertib; first compound 0.253 µM): 0.57 | relative viability (QS11 + Tozasertib; first compound 0.8 µM): 0.401 | relative viability (QS11 + Tozasertib; first compound 2.53 µM): 0.462 | relative viability (QS11 + Tozasertib; first compound 8 µM): 0.449 | relative viability (AZ628 + OSI-027; first compound 0.08 µM): 0.427 | relative viability (AZ628 + OSI-027; first compound 0.253 µM): 0.37 | relative viability (AZ628 + OSI-027; first compound 0.8 µM): 0.391 | relative viability (AZ628 + OSI-027; first compound 2.53 µM): 0.341 | relative viability (AZ628 + OSI-027; first compound 8 µM): 0.399 | relative viability ([1]; first compound 0.08 µM): 0.502 | relative viability ([1]; first compound 0.8 µM): 0.56 | relative viability ([1]; first compound 2.53 µM): 0.588 | relative viability ([1]; first compound 8 µM): 0.424 | relative viability ([2]; first compound 0.08 µM): 0.729 | relative viability ([2]; first compound 0.8 µM): 0.668 | relative viability ([2]; first compound 2.53 µM): 0.65 | relative viability ([2]; first compound 8 µM): 0.853

HCC-366
relative viability (QS11 + Tozasertib; first compound 0.08 µM): 0.133 | relative viability (QS11 + Tozasertib; first compound 0.253 µM): 0.0935 | relative viability (QS11 + Tozasertib; first compound 2.53 µM): 0.0603 | relative viability (QS11 + Tozasertib; first compound 8 µM): 0.0521 | relative viability (AZ628 + OSI-027; first compound 0.08 µM): 0.895 | relative viability (AZ628 + OSI-027; first compound 0.253 µM): 0.63 | relative viability (AZ628 + OSI-027; first compound 0.8 µM): 0.662 | relative viability (AZ628 + OSI-027; first compound 2.53 µM): 0.62 | relative viability (AZ628 + OSI-027; first compound 8 µM): 0.209 | relative viability ([1]; first compound 0.08 µM): 0.969 | relative viability ([1]; first compound 0.8 µM): 0.609 | relative viability ([1]; first compound 2.53 µM): 0.427 | relative viability ([1]; first compound 8 µM): 1.06 | relative viability ([2]; first compound 0.08 µM): 0.407 | relative viability ([2]; first compound 2.53 µM): 0.413 | relative viability ([2]; first compound 8 µM): 0.352
